From patent publication US20120264949A1, “Method of Labeling Dopamine D2 Receptor Using Radiosynthesized Ligand of Iodine-123-Epidepride” (ATOMIC ENERGY COUNCIL-INSTITUTE OF NUCLEAR ENERGY RESEARCH, priority 2011, published 2012)

Columns and labels:
[1] = Lipophilicity, octanol/PBS partition with gamma-counter; assay type: physicochemical
Procedure: For analyzing lipophilicity of the I-123-Epidepride, a solution of phosphate buffer saline (PBS) is used with lipophilic octanol. After 50 μl of I-123-Epidepride, 0.5 ml of PBS and 0.5 ml of octanol are mixed, a diluted octanol solution is obtained with an aqueous solution which has an equal weight as the octanol solution and then is processed with a gamma-counter. Therein, the lipophilicity of the I-123-Epidepride is expressed as a value of log P and log P is obtained by the following formula: Log P=Log {(Decay corrected activity)organic layer×10/(Decay corrected activity)aqueous layer}.
FIG. 6 and FIG. 7 are views showing lipophilicity and labeling results. […] Besides, the labeling method according to the present disclosure obtains 20 mCi each time for three times with an average radiochemistry purity of 99.55±0.8% and an average yield of 74.83±2.4% (shown in FIG. 7).

[2] = Stability after standing 24 hours, radiochemistry purity measured; assay type: physicochemical; details: stayed still for 24 hours
Procedure: FIG. 8A and FIG. 8B are views showing stability at 0 hour and 24 hour. As shown in the figures, after the I-123-Epidepride is stayed still for 24 hours, its radiochemistry purity is measured. As shown by the liquid peaks, [32], the stability is higher than 90%.

dopamine D2 receptors [3] = biological target: T1, dopamine D2 receptors (Mus musculus, UniProt P61168); assay: microSPECT/microCT imaging of mouse brain; assay type: in vivo; details: 5 mCi injected, striatum, thalamus and midbrain
T1 construct: from tissue; host or cells: mouse brain in vivo (striatum, thalamus, midbrain)
Procedure: FIG. 9 is a view showing a combined image of a mouse brain obtained through microSPECT and microCT. As shown in the figure, a combined image of a mouse brain is obtained through microSPECT and microCT, where 5 mCi of I-123-Epidepride is injected into the mouse brain.

dopamine D2 receptors [4] = biological target: dopamine D2 receptors (Homo sapiens, UniProt P14416); details: imaging agent for dopamine D2 receptors; cited from earlier work
Chain of dopamine D2 receptors (Homo sapiens, UniProt P14416) (P14416 whole entry): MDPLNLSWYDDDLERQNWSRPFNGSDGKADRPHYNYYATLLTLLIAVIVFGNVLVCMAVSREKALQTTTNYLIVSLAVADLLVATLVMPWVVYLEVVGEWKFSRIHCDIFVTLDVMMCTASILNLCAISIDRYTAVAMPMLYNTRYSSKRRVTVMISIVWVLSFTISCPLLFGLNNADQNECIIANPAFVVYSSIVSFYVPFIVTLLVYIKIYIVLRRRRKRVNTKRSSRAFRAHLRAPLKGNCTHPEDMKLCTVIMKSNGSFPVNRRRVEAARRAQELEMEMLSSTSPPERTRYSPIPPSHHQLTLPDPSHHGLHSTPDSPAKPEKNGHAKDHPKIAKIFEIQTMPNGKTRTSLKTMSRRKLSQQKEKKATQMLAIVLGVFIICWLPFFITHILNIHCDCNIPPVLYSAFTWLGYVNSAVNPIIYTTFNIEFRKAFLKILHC

T1 sequence (P61168 whole entry): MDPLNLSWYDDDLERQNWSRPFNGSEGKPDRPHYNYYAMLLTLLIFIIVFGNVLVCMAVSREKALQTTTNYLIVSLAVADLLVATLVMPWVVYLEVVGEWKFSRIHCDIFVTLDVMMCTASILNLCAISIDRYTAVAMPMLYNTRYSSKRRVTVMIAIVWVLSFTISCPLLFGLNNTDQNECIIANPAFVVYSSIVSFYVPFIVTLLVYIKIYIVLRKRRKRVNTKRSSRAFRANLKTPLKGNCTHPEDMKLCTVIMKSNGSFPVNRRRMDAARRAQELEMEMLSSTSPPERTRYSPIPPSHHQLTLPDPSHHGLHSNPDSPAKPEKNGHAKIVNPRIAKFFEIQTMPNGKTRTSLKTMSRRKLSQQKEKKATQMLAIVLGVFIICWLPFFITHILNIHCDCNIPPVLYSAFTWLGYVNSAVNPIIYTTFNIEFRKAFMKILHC

Row | SMILES | log P value [1] | stability (radiochemistry purity after 24 hours) [2] | brain uptake in combined microSPECT/microCT image (dopamine D2 receptors [3]) | Kd (dopamine D2 receptors [4]) [nM]
1 | CCN1CCC[C@H]1CNC(=O)c1cc(I)cc(OC)c1OC [I-123-Epidepride] | 1.76±0.04 | higher than 90% | obvious absorption is found in striatum [41], thalamus and midbrain [42] | –
2 | CCN1CCC[C@H]1CNC(=O)c1c(OC)ccc(I)c1O [IBZM] | – | – | – | 0.43
